Laboratory results as given in publication PMC8003416, “Modulation of Human Phenylalanine Hydroxylase by 3-Hydroxyquinolin-2(1H)-One Derivatives” (Biomolecules, 2021).

Tests used:
[1] = Alamar Blue cell viability assay; type: cell-based; settings: human, HEK-293T cells
Description: Cytotoxicity of selected 3HQs was assessed in HEK-293T cells using the Alamar Blue assay as a general cell viability endpoint method that monitors the cellular metabolic state, and the propidium iodide (PI) exclusion assay was used to evaluate membrane integrity essentially as described. The 3HQs were tested at a final concentration of 50 and 100 μM (two independent assays; five replicates each). Control assays were performed using 1% DMSO (negative control), or SDS at 1 mg/mL as a positive control of cell death in the PI assay. HEK-293T cells were seeded in sterile flat bottom 96-well tissue culture plates, in RPMI 1640 culture medium, supplemented with 10% fetal bovine serum, 100 units/mL of penicillin G (sodium salt), 100 μg/mL of streptomycin sulphate and 2 mM L-glutamine, at a cell density of 2 × 10^4 cells per well. Cells were incubated at 37 °C and 5% CO2. The culture medium was replaced by fresh medium (supplemented as above) containing the different 3HQs to be analyzed. After 24 h incubation, the culture medium was replaced by […] PI (Sigma-Aldrich) in fresh medium (stock solution 1.5 mM in DMSO) and fluorescence was measured (λexc 485 nm, λem 590 nm) in a FLUOstar Omega microplate reader. The Alamar Blue assay was performed by replacing the culture medium with fresh medium containing 5 mM resazurin (Invitrogen). The cells were further incubated for 3 h and fluorescence was measured (λexc 530 nm, λem 590 nm) in a FLUOstar Omega microplate reader (BMG Labtech). The relative PI uptake and cell viability (%) were calculated using Equations (3) and (4), respectively. Relative PI uptake = Fluorescence intensitysample/Fluorescence intensitynegative control(3) Relative cell viability (%) = Fluorescence intensitysample/Fluorescence intensitycontrol × 100(4)

[2] = molecular target: T1, human phenylalanine hydroxylase (hPAH) (Homo sapiens, UniProt P00439); experiment: Small-angle X-ray scattering of hPAH; settings: 200 μM in buffer/2% DMSO
T1 construct: Recombinant full-length wild-type (WT) hPAH was expressed in E. coli Top10 cells in fusion with a hexa-histidyl peptide; made in house; host or cells: E. coli Top10
T1 sequence (P00439 1-452): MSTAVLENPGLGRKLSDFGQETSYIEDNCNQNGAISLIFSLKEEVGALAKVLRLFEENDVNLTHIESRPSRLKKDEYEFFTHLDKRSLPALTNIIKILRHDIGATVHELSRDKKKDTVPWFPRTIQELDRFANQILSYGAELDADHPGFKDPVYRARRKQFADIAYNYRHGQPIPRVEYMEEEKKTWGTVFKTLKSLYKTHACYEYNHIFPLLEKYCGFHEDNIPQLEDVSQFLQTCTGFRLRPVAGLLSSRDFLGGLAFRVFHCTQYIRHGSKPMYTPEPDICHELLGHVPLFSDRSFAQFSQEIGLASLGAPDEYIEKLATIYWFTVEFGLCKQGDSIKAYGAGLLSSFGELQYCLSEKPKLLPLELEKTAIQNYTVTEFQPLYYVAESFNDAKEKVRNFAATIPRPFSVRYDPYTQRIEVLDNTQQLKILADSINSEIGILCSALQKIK
Description: Small-angle X-ray scattering experiments were performed at the Diamond Light Source B21 [30] beamline at a wavelength of 0.95 Å. Tetrameric hPAH was thawed on ice, centrifuged at 12,000× g for 8 min at 4 °C, and quantitated using a NanoDrop (molar extinction coefficient: 10.09 mg/mL/cm) prior to data acquisition. Measurements were performed in static mode with the automated sample changer at 20 °C using a protein concentration of 86 μM (monomer) in 20 mM Na-HEPES, 200 mM NaCl, pH 7.0 in the absence or presence of 2% DMSO. L-Phe and compound 9 were tested at a final concentration of 200 μM in 2% DMSO. Data were recorded using a Pilatus 2M detector covering a momentum transfer 0.0031 < s < 0.380 Å-1 (s = 4π sin θ/λ, where 2θ is the scattering angle). The data were processed and analyzed using the ATSAS program suite. The sample frames were monitored for radiation damage, the selected frames were averaged, and the buffer contribution was subtracted using PRIMUS [32]. The radius of gyration (Rg) and the maximum particle dimension (Dmax) were estimated from the Guinier approximation using PRIMUS and from the pair-distribution function P(r) using the GNOM package, respectively. Fitting of the experimental curves and the theoretical curves computed from SASBDB models was performed using CRYSOL [31].

Row | Structure (SMILES) | viability at 24 h, 50 µM [1] [%] | viability at 24 h, 100 µM [1] [%] | Dmax of hPAH [2] [Å] | MM of hPAH (MM = VP/1.6) [2] [kDa] | Rg^Guinier of hPAH [2] [Å] | Rg^P(r) of hPAH [2] [Å] | VP (excluded particle volume) of hPAH [2]
1 | COC(=O)CC[C@H](NC(=O)c1c(O)c(=O)[nH]c2ccc(OC(F)(F)F)cc12)C(=O)OC [Compound 9] | 85 ± 32 | 82 ± 13 | 189 | 268 | 52.14 ± 0.07 | 52.00 ± 0.05 | 428,899 Å^3
2 | N[C@@H](Cc1ccccc1)C(=O)O [L-Phe, L-phenylalanine, reference compound] | – | – | 179 | 393 | 52.73 ± 0.07 | – | 629,301 Å^3
3 | COC(=O)CNC(=O)c1c(O)c(=O)[nH]c2ccc(OC(F)(F)F)cc12 [Compound 11] | 94 ± 3 | 101 ± 5 | – | – | – | – | –
